Converted amounts (≈) assume the structure as drawn.
What was measured:
Assay type in all cases: cell-based
[1] = system: Pseudomonas aeruginosa UC-12120; test: minimum inhibitory concentration (MIC) testing according to CLSI guidelines, Pseudomonas aeruginosa; conditions: UC-12120, wild-type, labeled as 1091-05, overnight incubation, lower of duplicate values; for MIC: Pseudomonas aeruginosa, UC12120, read-out: AB-MBT: Pseudomonas aeruginosa 1091-05: MIC (MstRcn)
Description: (§1) In order to assess the compounds biological activity, the in vitro anti-bacterial activity of selected compounds described in the Examples 1-69 was evaluated by minimum inhibitory concentration (MIC) testing according to Clinical and Laboratory Standards Institute (CLSI, formerly NCCLS) guidelines. See: Clinical and Laboratory Standards Institute. Methods for Dilution Antimicrobial Susceptibility Tests for Bacteria that Grow Aerobically; Approved Standard-Eighth Edition. CLSI document M7-A8 [ISBN 1-56238-689-1]. Clinical and Laboratory Standards Institute, 940 West Valley Road, Suite 1400, Wayne, Pa. 19087-1898 USA, 2006; also Clinical and Laboratory Standards Institute. Performance Standards for Antimicrobial Susceptibility Testing; Twentieth Informational Supplement. CLSI document M100-S20 [ISBN1-56238-716-2]. Clinical and Laboratory Standards Institute.
(§2) The MIC determination is a standard laboratory method for evaluating the antibacterial activity of a compound. The MIC represents the lowest drug concentration that inhibits visible growth of bacteria following overnight incubation. […] Typically, the drug concentration range is broken down into 2-fold increments (e.g. 0.06 μg/mL, 0.12 μg/mL. 0.25 μg/mL, 0.50 μg/mL, 1.0 μg/mL, etc.) and the various drug concentrations are all individually incubated overnight with approximately the same number of bacteria. The MIC is then determined by visually inspecting the drug effect at each concentration, and identifying the lowest drug concentration that has inhibited bacterial growth as compared to the drug free control. Typically, bacteria continue to grow at drug concentrations lower than the MIC and don't grow at concentrations at and above the MIC.
(§3) The MIC values described in Table 1 below were derived from assays wherein each test compound was evaluated in duplicate. In cases where the duplicate values varied by 0-2-fold, the lower of the two values was reported below. Generally speaking, if the duplicate values varied by more than 2-fold, the assay was considered non-valid and was repeated until the variation between duplicate runs was ≦2-fold. In line with the CLSI guidelines referred to above, both control organisms and reference compounds were utilized in each MIC assay to provide proper quality control. MIC values generated with these control organisms and reference compounds were required to fall within a defined range for the assay to be considered valid and be included herein. Those skilled in the art will recognize that MIC values can and do vary from experiment to experiment. Generally speaking, it should be recognized that MIC values often vary +/−2-fold from experiment to experiment. While a single MIC is reported for each compound and each microorganism, the reader should not conclude that each compound was only tested once. Several of the compounds were subjected to multiple tests. The data reported in Table 1 is reflective of the compounds relative activity and different MICs may have been generated on these occasions in light with the guidelines described above.
(§4) The following bacterial strains were used in these MIC determinations:
1) Pseudomonas aeruginosa UC-12120: Wild-type, labeled as 1091-05;

[2] = system: Acinetobacter baumannii/haemolyticus AB-3167; test: minimum inhibitory concentration (MIC) testing according to CLSI guidelines, Acinetobacter; conditions: multidrug-resistant clinical isolate AB-3167, overnight incubation, lower of duplicate values; for MIC: Acinetobacter baumannii, read-out: AB-MBT: Acinetobacter baumanii AB-3167: MIC (MstRcnt)
Description: as §1, §2, §3, §4
3) Acinetobacter baumannii/haemolyticus: Multidrug-resistant clinical isolate, labeled as AB-3167.

[3] = system: Klebsiella pneumoniae 1000-02; test: minimum inhibitory concentration (MIC) testing according to CLSI guidelines, Klebsiella pneumoniae; conditions: ciprofloxacin-resistant, ESBL-expressing clinical isolate 1000-02, overnight incubation, lower of duplicate values; for MIC: Klebsiella pneumoniae, read-out: AB-MBT: Klebsiella pneumoniae 1000-02: MIC (MstRcnt)
Description: as §1, §2, §3, §4
2) Klebsiella pneumoniae: Ciprofloxacin-resistant isolate, expresses extended-spectrum beta-lactamases (ESBL), clinical isolate, labeled as 1000-02;

Row | Compound | MIC [1] | MIC [3] | AB-MBT: Pseudomonas aeruginosa 1091-05: MIC (MstRcn) [1] | AB-MBT: Klebsiella pneumoniae 1000-02: MIC (MstRcnt) [3] | MIC [2] | AB-MBT: Acinetobacter baumanii AB-3167: MIC (MstRcnt) [2]
1 | CC(C)(O/N=C(\C(=O)N[C@@H]1C(=O)N(S(=O)(=O)O)[C@@H]1CNC(=O)c1cc(-c2cc(=O)c(O)cn2O)on1)c1csc(N)n1)C(=O)O [Example 16, 2-({[(1Z)-1-(2-amino-1,3-thiazol-4-yl)-2-({(2R,3S)-2-[({[5-(1,5-dihydroxy-4-oxo-1,4-dihydropyridin-2-yl)isoxazol-3-yl]carbonyl}amino)methyl]-4-oxo-1-sulfoazetidin-3-yl}amino)-2-oxoethylidene]amino}oxy)-2-methylpropanoic acid] | 0.25 µg/mL (≈ 0.373 µM) | 0.5 µg/mL (≈ 0.746 µM) |  |  | 1 µg/mL (≈ 1.49 µM) | 
2 | CC(C)(O/N=C(\C(=O)N[C@@H]1C(=O)N(S(=O)(=O)[O-])[C@@H]1CNC(=O)c1coc(-c2cc(=O)c(O)cn2O)n1)c1csc(N)n1)C(=O)[O-].[Na+].[Na+] [Example 17, 2-({[(1Z)-1-(2-amino-1,3-thiazol-4-yl)-2-({(2R,3S)-2-[({[2-(1,5-dihydroxy-4-oxo-1,4-dihydropyridin-2-yl)-1,3-oxazol-4-yl]carbonyl}amino)methyl]-4-oxo-1-sulfoazetidin-3-yl}amino)-2-oxoethylidene]amino}oxy)-2-methylpropanoic acid, bis sodium salt] |  |  | 0.125 µg/mL | 1.00 µg/mL |  | 1.00 µg/mL
3 | CC(C)(O/N=C(\C(=O)N[C@@H]1C(=O)N(S(=O)(=O)[O-])[C@@H]1CNC(=O)c1coc(-c2cc(=O)c(O)c[nH]2)n1)c1csc(N)n1)C(=O)[O-].[Na+].[Na+] [Example 18, 2-({[(1Z)-1-(2-amino-1,3-thiazol-4-yl)-2-({(2R,3S)-2-[({[2-(5-hydroxy-4-oxo-1,4-dihydropyridin-2-yl)-1,3-oxazol-4-yl]carbonyl}amino)methyl]-4-oxo-1-sulfoazetidin-3-yl}amino)-2-oxoethylidene]amino}oxy)-2-methylpropanoic acid, bis sodium salt] |  |  | 0.250 µg/mL | 0.500 µg/mL |  | 1.00 µg/mL
4 | CC(C)(O/N=C(\C(=O)N[C@@H]1C(=O)N(S(=O)(=O)O)[C@@H]1COC(=O)c1csc(-c2cc(=O)c(O)c[nH]2)n1)c1csc(N)n1)C(=O)O [Example 19, 2-({[(1Z)-1-(2-amino-1,3-thiazol-4-yl)-2-({(2S,3S)-2-[({[2-(5-hydroxy-4-oxo-1,4-dihydropyridin-2-yl)-1,3-thiazol-4-yl]carbonyl}oxy)methyl]-4-oxo-1-sulfoazetidin-3-yl}amino)-2-oxoethylidene]amino}oxy)-2-methylpropanoic acid] | 0.5 µg/mL (≈ 0.744 µM) | 1 µg/mL (≈ 1.49 µM) |  |  | 1 µg/mL (≈ 1.49 µM) | 
5 | CC(C)(O/N=C(\C(=O)N[C@@H]1C(=O)N(S(=O)(=O)O)[C@@H]1COC(=O)c1ccnc(-c2cc(=O)c(O)c[nH]2)n1)c1csc(N)n1)C(=O)O [Example 21, 2-({[(1Z)-1-(2-amino-1,3-thiazol-4-yl)-2-({(2S,3S)-2-[({[2-(5-hydroxy-4-oxo-1,4-dihydropyridin-2-yl)pyrimidin-4-yl]carbonyl}oxy)methyl]-4-oxo-1-sulfoazetidin-3-yl}amino)-2-oxoethylidene]amino}oxy)-2-methylpropanoic acid] | 8 µg/mL (≈ 12 µM) | 64 µg/mL (≈ 96 µM) |  |  | > 64 µg/mL | 
6 | CC(C)(O/N=C(\C(=O)N[C@@H]1C(=O)N(S(=O)(=O)O)[C@@H]1CNC(=O)c1ccnc(-c2cc(=O)c(O)c[nH]2)n1)c1csc(N)n1)C(=O)O [Example 22, 2-({[(1Z)-1-(2-amino-1,3-thiazol-4-yl)-2-({(2R,3S)-2-[({[2-(5-hydroxy-4-oxo-1,4-dihydropyridin-2-yl)pyrimidin-4-yl]carbonyl}amino)methyl]-4-oxo-1-sulfoazetidin-3-yl}amino)-2-oxoethylidene]amino}oxy)-2-methylpropanoic acid] | 4 µg/mL (≈ 6.01 µM) | 32 µg/mL (≈ 48.1 µM) |  |  | 16 µg/mL (≈ 24 µM) | 
7 | CC(C)(O/N=C(\C(=O)N[C@@H]1C(=O)N(S(=O)(=O)O)[C@@H]1CNC(=O)c1ccnc(-c2cc(=O)c(O)cn2O)n1)c1csc(N)n1)C(=O)O [Example 23, 2-({[(1Z)-1-(2-amino-1,3-thiazol-4-yl)-2-({(2R,3S)-2-[({[2-(1,5-dihydroxy-4-oxo-1,4-dihydropyridin-2-yl)pyrimidin-4-yl]carbonyl}amino)methyl]-4-oxo-1-sulfoazetidin-3-yl}amino)-2-oxoethylidene]amino}oxy)-2-methylpropanoic acid] | 1 µg/mL (≈ 1.47 µM) | 0.25 µg/mL (≈ 0.367 µM) |  |  | 0.25 µg/mL (≈ 0.367 µM) | 
8 | CC(C)(O/N=C(\C(=O)N[C@@H]1C(=O)N(S(=O)(=O)O)[C@@H]1CNC(=O)c1cnc(-c2cc(=O)c(O)c[nH]2)nc1)c1csc(N)n1)C(=O)O [Example 24, 2-({[(1Z)-1-(2-amino-1,3-thiazol-4-yl)-2-({(2R,3S)-2-[({[2-(5-hydroxy-4-oxo-1,4-dihydropyridin-2-yl)pyrimidin-5-yl]carbonyl}amino)methyl]-4-oxo-1-sulfoazetidin-3-yl}amino)-2-oxoethylidene]amino}oxy)-2-methylpropanoic acid] | 1 µg/mL (≈ 1.5 µM) | 16 µg/mL (≈ 24 µM) |  |  | 2 µg/mL (≈ 3 µM) | 

Second part, led by results:

Row | MIC [1] | MIC [3] | AB-MBT: Pseudomonas aeruginosa 1091-05: MIC (MstRcn) [1] | AB-MBT: Klebsiella pneumoniae 1000-02: MIC (MstRcnt) [3] | Compound | MIC [2] | AB-MBT: Acinetobacter baumanii AB-3167: MIC (MstRcnt) [2]
9 | 0.25 µg/mL (≈ 0.372 µM) | 0.125 µg/mL (≈ 0.186 µM) |  |  | CC(C)(O/N=C(\C(=O)N[C@@H]1C(=O)N(S(=O)(=O)O)[C@@H]1COC(=O)c1cc(-c2cc(=O)c(O)cn2O)no1)c1csc(N)n1)C(=O)O [Example 13, 2-({[(1Z)-1-(2-amino-1,3-thiazol-4-yl)-2-({(2S,3S)-2-[({[3-(1,5-dihydroxy-4-oxo-1,4-dihydropyridin-2-yl)isoxazol-5-yl]carbonyl}oxy)methyl]-4-oxo-1-sulfoazetidin-3-yl}amino)-2-oxoethylidene]amino}oxy)-2-methylpropanoic acid] | 0.5 µg/mL (≈ 0.745 µM) | 
10 | 1 µg/mL (≈ 1.53 µM) | 0.5 µg/mL (≈ 0.764 µM) |  |  | CC(C)(O/N=C(\C(=O)N[C@@H]1C(=O)N(S(=O)(=O)O)[C@@H]1CNC(=O)c1cc(-c2cc(=O)c(O)c[nH]2)no1)c1csc(N)n1)C(=O)O [Example 14, 2-({[(1Z)-1-(2-amino-1,3-thiazol-4-yl)-2-({(2R,3S)-2-[({[3-(5-hydroxy-4-oxo-1,4-dihydropyridin-2-yl)isoxazol-5-yl]carbonyl}amino)methyl]-4-oxo-1-sulfoazetidin-3-yl}amino)-2-oxoethylidene]amino}oxy)-2-methylpropanoic acid] | 0.5 µg/mL (≈ 0.764 µM) | 
11 |  |  | 0.250 µg/mL | 1.00 µg/mL | CC(C)(O/N=C(\C(=O)N[C@@H]1C(=O)N(S(=O)(=O)[O-])[C@@H]1CNC(=O)c1cc(-c2cc(=O)c(O)cn2O)no1)c1csc(N)n1)C(=O)[O-].[Na+].[Na+] [Example 15, 2-({[(1Z)-1-(2-amino-1,3-thiazol-4-yl)-2-({(2R,3S)-2-[({[3-(1,5-dihydroxy-4-oxo-1,4-dihydropyridin-2-yl)isoxazol-5-yl]carbonyl}amino)methyl]-4-oxo-1-sulfoazetidin-3-yl}amino)-2-oxoethylidene]amino}oxy)-2-methylpropanoic acid, bis sodium salt] |  | 0.250 µg/mL
12 | 1 µg/mL (≈ 1.49 µM) | 0.5 µg/mL (≈ 0.746 µM) |  |  | CC(C)(O/N=C(\C(=O)N[C@@H]1C(=O)N(S(=O)(=O)O)[C@@H]1CNC(=O)c1csc(-c2cc(=O)c(O)c[nH]2)n1)c1csc(N)n1)C(=O)O [Example 20, 2-({[(1Z)-1-(2-amino-1,3-thiazol-4-yl)-2-({(2R,3S)-2-[({[2-(5-hydroxy-4-oxo-1,4-dihydropyridin-2-yl)-1,3-thiazol-4-yl]carbonyl}amino)methyl]-4-oxo-1-sulfoazetidin-3-yl}amino)-2-oxoethylidene]amino}oxy)-2-methylpropanoic acid] | 1 µg/mL (≈ 1.49 µM) | 

Source: patent publication US20130252935A1, “Monobactams” (PFIZER INC., priority 2010, published 2013)
